ChEMBL document CHEMBL3994622, “Design and synthesis of new RAF kinase-inhibiting antiproliferative quinoline derivatives. Part 2: Diarylurea derivatives” (Eur J Med Chem, 2017)

Columns and labels:
Assay type in all cases: functional
U-251 [1] = assay: Growth inhibition of human U251 cells assessed as cell growth at 0.1 uM incubated for 48 hrs by sulforhodamine B assay relative to control; details: U-251, 48 h, read-out: Activity
OVCAR-4 [2] = assay: Growth inhibition of human OVCAR4 cells assessed as cell growth at 1 uM incubated for 48 hrs by sulforhodamine B assay relative to control; details: OVCAR-4, 48 h, read-out: Activity
M14 [3] = assay: Growth inhibition of human M14 cells assessed as cell growth at 100 uM incubated for 48 hrs by sulforhodamine B assay relative to control; details: M14, 48 h, read-out: Activity
HCC 2998 = assay: Growth inhibition of human HCC2998 cells assessed as cell growth at 1 uM incubated for 48 hrs by sulforhodamine B assay relative to control; details: HCC 2998, 48 h, read-out: Activity
SW-620 = assay: Growth inhibition of human SW620 cells assessed as cell growth at 10 uM incubated for 48 hrs by sulforhodamine B assay relative to control; details: SW-620, 48 h, read-out: Activity
BT-549 = assay: Growth inhibition of human BT549 cells assessed as cell growth at 10 uM incubated for 48 hrs by sulforhodamine B assay relative to control; details: BT-549, 48 h, read-out: Activity
PC-3 [4] = assay: Growth inhibition of human PC3 cells assessed as cell growth at 100 uM incubated for 48 hrs by sulforhodamine B assay relative to control; details: PC-3, 48 h, read-out: Activity
DU-145 [5] = assay: Growth inhibition of human DU145 cells assessed as cell growth at 0.01 uM incubated for 48 hrs by sulforhodamine B assay relative to control; details: DU-145, 48 h, read-out: Activity
MCF7 = assay: Growth inhibition of human MCF7 cells assessed as cell growth at 10 uM incubated for 48 hrs by sulforhodamine B assay relative to control; details: MCF7, 48 h, read-out: Activity
KM12 = assay: Growth inhibition of human KM12 cells assessed as cell growth at 0.01 uM incubated for 48 hrs by sulforhodamine B assay relative to control; details: KM12, 48 h, read-out: Activity
DU-145 [6] = assay: Growth inhibition of human DU145 cells assessed as cell growth at 100 uM incubated for 48 hrs by sulforhodamine B assay relative to control; details: DU-145, 48 h, read-out: Activity
HOP-62 = assay: Growth inhibition of human HOP62 cells assessed as cell growth at 0.1 uM incubated for 48 hrs by sulforhodamine B assay relative to control; details: HOP-62, 48 h, read-out: Activity
786-0 [7] = assay: Growth inhibition of human 786-0 cells assessed as cell growth at 100 uM incubated for 48 hrs by sulforhodamine B assay relative to control; details: 786-0, 48 h, read-out: Activity
IGROV-1 = assay: Growth inhibition of human IGROV1 cells assessed as cell growth at 0.01 uM incubated for 48 hrs by sulforhodamine B assay relative to control; details: IGROV-1, 48 h, read-out: Activity
UACC-257 = assay: Growth inhibition of human UACC257 cells assessed as cell growth at 1 uM incubated for 48 hrs by sulforhodamine B assay relative to control; details: UACC-257, 48 h, read-out: Activity
SK-MEL-2 [8] = assay: Growth inhibition of human SK-MEL-2 cells assessed as cell growth at 0.1 uM incubated for 48 hrs by sulforhodamine B assay relative to control; details: SK-MEL-2, 48 h, read-out: Activity
SK-MEL-2 [9] = assay: Growth inhibition of human SK-MEL-2 cells assessed as cell growth at 0.3 uM incubated for 48 hrs by sulforhodamine B assay relative to control; details: SK-MEL-2, 48 h, read-out: Activity
HCT-15 = assay: Growth inhibition of human HCT15 cells assessed as cell growth at 0.003 uM incubated for 48 hrs by sulforhodamine B assay relative to control; details: HCT-15, 48 h, read-out: Activity
OVCAR-4 [10] = assay: Growth inhibition of human OVCAR4 cells assessed as cell growth at 3 uM incubated for 48 hrs by sulforhodamine B assay relative to control; details: OVCAR-4, 48 h, read-out: Activity
HL-60(TB) = assay: Growth inhibition of human HL-60(TB) cells assessed as cell growth at 30 uM incubated for 48 hrs by sulforhodamine B assay relative to control; details: HL-60, 48 h, read-out: Activity
SNB-75 = assay: Growth inhibition of human SNB75 cells assessed as cell growth at 3 uM incubated for 48 hrs by sulforhodamine B assay relative to control; details: SNB-75, 48 h, read-out: Activity
UACC-62 = assay: Growth inhibition of human UACC62 cells assessed as cell growth at 3 uM incubated for 48 hrs by sulforhodamine B assay relative to control; details: UACC-62, 48 h, read-out: Activity
U-251 [11] = assay: Growth inhibition of human U251 cells assessed as cell growth at 3 uM incubated for 48 hrs by sulforhodamine B assay relative to control; details: U-251, 48 h, read-out: Activity
K562 = assay: Growth inhibition of human K562 cells assessed as cell growth at 30 uM incubated for 48 hrs by sulforhodamine B assay relative to control; details: K562, 48 h, read-out: Activity
MOLT-4 = assay: Growth inhibition of human MOLT4 cells assessed as cell growth at 3 uM incubated for 48 hrs by sulforhodamine B assay relative to control; details: MOLT-4, 48 h, read-out: Activity
M14 [12] = assay: Growth inhibition of human M14 cells assessed as cell growth at 0.3 uM incubated for 48 hrs by sulforhodamine B assay relative to control; details: M14, 48 h, read-out: Activity
COLO 205 = assay: Growth inhibition of human COLO205 cells assessed as cell growth at 0.3 uM incubated for 48 hrs by sulforhodamine B assay relative to control; details: COLO 205, 48 h, read-out: Activity
NCI/ADR-RES = assay: Growth inhibition of human NCI/ADR-RES cells assessed as cell growth at 3 uM incubated for 48 hrs by sulforhodamine B assay relative to control; details: read-out: Activity
SF-539 = assay: Growth inhibition of human SF539 cells assessed as cell growth at 0.03 uM incubated for 48 hrs by sulforhodamine B assay relative to control; details: SF-539, 48 h, read-out: Activity
TK-10 = assay: Growth inhibition of human TK10 cells assessed as cell growth at 0.003 uM incubated for 48 hrs by sulforhodamine B assay relative to control; details: TK-10, 48 h, read-out: Activity
SN12C = assay: Growth inhibition of human SN12C cells assessed as cell growth at 0.003 uM incubated for 48 hrs by sulforhodamine B assay relative to control; details: read-out: Activity
786-0 [13] = assay: Growth inhibition of human 786-0 cells assessed as cell growth at 0.003 uM incubated for 48 hrs by sulforhodamine B assay relative to control; details: 786-0, 48 h, read-out: Activity
PC-3 [14] = assay: Growth inhibition of human PC3 cells assessed as cell growth at 3 uM incubated for 48 hrs by sulforhodamine B assay relative to control; details: PC-3, 48 h, read-out: Activity
MDA-MB-231 = assay: Growth inhibition of human MDA-MB-231 cells assessed as cell growth at 0.3 uM incubated for 48 hrs by sulforhodamine B assay relative to control; details: MDA-MB-231, 48 h, read-out: Activity

`COc1cc2cc(Oc3ccc(NC(=O)Nc4ccc(Cl)c(Cl)c4)cc3)c(C)nc2cc1OC` was tested, and the growth at 0.1 µM (U-251 [1]) was 93%, the growth at 1 µM (OVCAR-4 [2]) was 93% and the growth at 100 µM (M14 [3]) was -94%. For the same molecule, the growth at 1 µM (HCC 2998) was 96%, the growth at 10 µM (SW-620) was 16% and the growth at 10 µM (BT-549) was 5%. The growth at 100 µM (PC-3 [4]) was -96%, the growth at 0.01 µM (DU-145 [5]) was 109% and the growth at 10 µM (MCF7) was 8%. The growth at 0.01 µM (KM12) was 103%, the growth at 100 µM (DU-145 [6]) was -64% and the growth at 0.1 µM (HOP-62) was 104%. It also gave a growth at 100 µM (786-0 [7]) of -66%, a growth at 0.01 µM (IGROV-1) of 110% and a growth at 1 µM (UACC-257) of 92%. For the same molecule, the growth at 0.1 µM (SK-MEL-2 [8]) was 116%.
With `COc1cc2cc(Oc3ccc(NC(=O)Nc4ccc(Cl)c(C(F)(F)F)c4)cc3)c(C)nc2cc1OC` the growth at 0.3 µM (SK-MEL-2 [9]) was 101%, the growth at 0.003 µM (HCT-15) was 95% and the growth at 3 µM (OVCAR-4 [10]) was 23%. For the same molecule, the growth at 30 µM (HL-60(TB)) was -22%, the growth at 3 µM (SNB-75) was 10% and the growth at 3 µM (UACC-62) was 28%. For the same molecule, the growth at 3 µM (U-251 [11]) was 6%, the growth at 30 µM (K562) was -60% and the growth at 3 µM (MOLT-4) was 10%. The growth at 0.3 µM (M14 [12]) was 94%, the growth at 0.3 µM (COLO 205) was 102% and the growth at 3 µM (NCI/ADR-RES) was 8%. It also gave a growth at 0.03 µM (SF-539) of 100%, a growth at 0.003 µM (TK-10) of 94% and a growth at 0.003 µM (SN12C) of 98%. The growth at 0.003 µM (786-0 [13]) was 97%, the growth at 3 µM (PC-3 [14]) was -3% and the growth at 0.3 µM (MDA-MB-231) was 87%.
`COc1cc2cc(Oc3ccc(NC(=O)Nc4cc(C(F)(F)F)cc(C(F)(F)F)c4)cc3)c(C)nc2cc1OC` was tested, and the growth at 0.1 µM (U-251 [1]) was 100%, the growth at 1 µM (OVCAR-4 [2]) was 58% and the growth at 100 µM (M14 [3]) was -66%. It also gave a growth at 1 µM (HCC 2998) of 79%, a growth at 10 µM (SW-620) of -26% and a growth at 10 µM (BT-549) of -64%. For the same molecule, the growth at 100 µM (PC-3 [4]) was -57%, the growth at 0.01 µM (DU-145 [5]) was 103% and the growth at 10 µM (MCF7) was -59%. For the same molecule, the growth at 0.01 µM (KM12) was 98%, the growth at 100 µM (DU-145 [6]) was -96% and the growth at 0.1 µM (HOP-62) was 94%. It also gave a growth at 100 µM (786-0 [7]) of -83%, a growth at 0.01 µM (IGROV-1) of 96% and a growth at 1 µM (UACC-257) of 107%. For the same molecule, the growth at 0.1 µM (SK-MEL-2 [8]) was 94%.
Molecule `Cc1nc2cc(O)c(O)cc2cc1Oc1ccc(NC(=O)Nc2ccc(Cl)c(Cl)c2)cc1` has a growth at 0.3 µM (SK-MEL-2 [9]) of 118%, a growth at 0.003 µM (HCT-15) of 100% and a growth at 3 µM (OVCAR-4 [10]) of 87%. It also gave a growth at 30 µM (HL-60(TB)) of -20%, a growth at 3 µM (SNB-75) of 83% and a growth at 3 µM (UACC-62) of 91%. For the same molecule, the growth at 3 µM (U-251 [11]) was 71%, the growth at 30 µM (K562) was -3% and the growth at 3 µM (MOLT-4) was 87%. It also gave a growth at 0.3 µM (M14 [12]) of 93%, a growth at 0.3 µM (COLO 205) of 109% and a growth at 3 µM (NCI/ADR-RES) of 85%. For the same molecule, the growth at 0.03 µM (SF-539) was 105%, the growth at 0.003 µM (TK-10) was 98% and the growth at 0.003 µM (SN12C) was 100%. It also gave a growth at 0.003 µM (786-0 [13]) of 98%, a growth at 3 µM (PC-3 [14]) of 56% and a growth at 0.3 µM (MDA-MB-231) of 118%.
